Biological target: T1, Menin (Homo sapiens, UniProt O00255)
T1 sequence (O00255 whole entry): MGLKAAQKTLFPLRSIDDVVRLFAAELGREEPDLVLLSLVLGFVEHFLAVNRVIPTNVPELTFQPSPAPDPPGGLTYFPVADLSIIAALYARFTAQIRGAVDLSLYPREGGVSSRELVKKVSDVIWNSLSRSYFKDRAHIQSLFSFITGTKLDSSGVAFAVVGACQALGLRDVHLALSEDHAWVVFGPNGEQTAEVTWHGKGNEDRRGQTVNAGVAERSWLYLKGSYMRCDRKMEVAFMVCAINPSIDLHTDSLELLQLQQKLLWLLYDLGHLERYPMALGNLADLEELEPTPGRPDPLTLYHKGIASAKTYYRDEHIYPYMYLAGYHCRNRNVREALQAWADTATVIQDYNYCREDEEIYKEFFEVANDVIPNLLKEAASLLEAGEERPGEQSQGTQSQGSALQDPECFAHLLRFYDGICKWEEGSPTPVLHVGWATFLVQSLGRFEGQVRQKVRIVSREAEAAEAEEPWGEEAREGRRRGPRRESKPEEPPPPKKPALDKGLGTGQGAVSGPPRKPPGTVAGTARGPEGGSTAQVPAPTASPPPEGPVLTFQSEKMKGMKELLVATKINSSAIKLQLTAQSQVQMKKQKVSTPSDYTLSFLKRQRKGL
Test: Inhibition of biotinylated MLL-1 derived biotinylated Btn-PEG2- PEG2-S-Nva-RWRFPARPGTT-Amide binding to recombinant full length N-terminal His-tagged menin (unknown origin) expressed in Escherichia coli incubated for 10 mins by TR-FRET assay

Row | IC50 [nM] | SMILES
1 | 10 | O=S(=O)(Cc1ccc(CN2CCC3(CCN(c4ncnc5sc(CC(F)(F)F)cc45)C3)C2)cc1)NCCO (centres undefined)
2 | 10 | CN(CCO)c1ccc(CN2CCC3(CCN(c4ncnc5sc(CC(F)(F)F)cc45)C3)C2)cc1 (centres undefined)
3 | 4 | NS(=O)(=O)Cc1ccc(CN2CCC3(CCN(c4ncnc5sc(CC(F)(F)F)cc45)C3)C2)cc1 (centres undefined)
4 | 10 | C=CC(=O)Nc1ccc(CN2CCC3(CCN(c4ncnc5sc(CC(F)(F)F)cc45)C3)C2)cc1 (centres undefined)
5 | 10 | CC(c1ccc(CN2CCC3(CCN(c4ncnc5sc(CC(F)(F)F)cc45)C3)C2)cc1)S(N)(=O)=O (centres undefined)
6 | 20 | N#CCc1ccc(CN2CCC3(CCN(c4ncnc5sc(CC(F)(F)F)cc45)C3)C2)cc1 (centres undefined)
7 | 20 | CC(C)(C#N)c1ccc(CN2CCC3(CCN(c4ncnc5sc(CC(F)(F)F)cc45)C3)C2)cc1 (centres undefined)
8 | 10 | FC(F)Cc1cc2c(N3CCC4(CCN(Cc5ccc(N6CCOCC6)cc5)C4)C3)ncnc2s1 (centres undefined)
9 | 10 | NS(=O)(=O)Cc1ccc(CN2CCC3(CCN(c4ncnc5cc(CC(F)(F)F)sc45)C3)C2)cc1 (centres undefined)
